SMILES strings stand for the structures. Where only a bound is given, the exact number is not on record here.

In general, Ki refers to the dissociation constant of the complex between target and ligand, obtained from inhibition or displacement. A high value points to weaker binding.

In this assay the target is Bcl-2 protein (Homo sapiens (Human), UniProt P10415). As to the kind of experiment: Bcl-2 binding TR-FRET (Time-Resolved Fluorescence-Resonance-Energy-Transfer) assay. The settings on record: inhibition constant for binding to Bcl-2 protein. An excerpt: The smaller the Ki value, the greater is the binding affinity.
Bcl-2 protein, sequence (P10415 whole entry): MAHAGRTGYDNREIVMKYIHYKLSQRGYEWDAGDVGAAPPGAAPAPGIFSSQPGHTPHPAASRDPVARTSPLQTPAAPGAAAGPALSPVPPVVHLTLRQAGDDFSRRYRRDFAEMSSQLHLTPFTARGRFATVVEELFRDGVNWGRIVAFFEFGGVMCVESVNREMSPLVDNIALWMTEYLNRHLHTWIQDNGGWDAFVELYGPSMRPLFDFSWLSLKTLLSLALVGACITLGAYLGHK
A general note: Time-resolved FRET reads energy transfer from a long-lived donor to a nearby acceptor.
For `CC[C@]1(O)CC[C@H](CNc2ccc(S(=O)(=O)NC(=O)c3ccc(N4CCN(CC5=C(c6ccc(Cl)cc6)CC(C)(C)CC5)CC4)cc3Oc3cnc4[nH]ccc4c3)cc2[N+](=O)[O-])CC1` [Compound 359, 4-(4-{[2-(4-chlorophenyl)-4,4-dimethylcyclohex-1-en-1-yl]methyl}piperazin-1-yl)-N-[(4-{[(cis-4-ethyl-4-hydroxycyclohexyl)methyl]amino}-3-nitrophenyl)sulfonyl]-2-(1H-pyrrolo[2,3-b]pyridin-5-yloxy)benzamide], the Ki was less than 0.01 nM. Then `CC1(C)CCC(c2ccc(Cl)cc2)=C(CN2CCN(c3ccc(C(=O)NS(=O)(=O)c4ccc(NCC5CCOCC5)c([N+](=O)[O-])c4)c(Oc4cnc5[nH]ccc5c4)c3)CC2)C1` [Compound 75, 4-(4-{[2-(4-chlorophenyl)-5,5-dimethylcyclohex-1-en-1-yl]methyl}piperazin-1-yl)-N-({3-nitro-4-[(tetrahydro-2H-pyran-4-ylmethyl)amino]phenyl}sulfonyl)-2-(1H-pyrrolo[2,3-b]pyridin-5-yloxy)benzamide], with less than 0.01 nM. In the case of `CC1(C)CCC(CN2CCN(c3ccc(C(=O)NS(=O)(=O)c4ccc(OCC5CCN(C6COC6)CC5)c([N+](=O)[O-])c4)c(Oc4cnc5[nH]ccc5c4)c3)CC2)=C(c2ccc(Cl)cc2)C1` [Compound 191, 4-(4-{[2-(4-chlorophenyl)-4,4-dimethylcyclohex-1-en-1-yl]methyl}piperazin-1-yl)-N-({3-nitro-4-[(1-oxetan-3-ylpiperidin-4-yl)methoxy]phenyl}sulfonyl)-2-(1H-pyrrolo[2,3-b]pyridin-5-yloxy)benzamide] it was less than 0.01 nM; in that of `COC1(C)CCC(c2ccc(Cl)cc2)=C(CN2CCN(c3ccc(C(=O)NS(=O)(=O)c4ccc(NCC5CCOCC5)c([N+](=O)[O-])c4)c(Oc4cnc5[nH]ccc5c4)c3)CC2)C1` (stereo not drawn) [Compound 378, 4-(4-{[2-(4-chlorophenyl)-5-methoxy-5-methylcyclohex-1-en-1-yl]methyl}piperazin-1-yl)-N-({3-nitro-4-[(tetrahydro-2H-pyran-4-ylmethyl)amino]phenyl}sulfonyl)-2-(1H-pyrrolo[2,3-b]pyridin-5-yloxy)benzamide], less than 0.001 nM; in that of `CC1(C)CCC(CN2CCN(c3ccc(C(=O)NS(=O)(=O)c4ccc(NCCC#N)c([N+](=O)[O-])c4)c(Oc4cnc5[nH]ccc5c4)c3)CC2)=C(c2ccc(Cl)cc2)C1` [Compound 62, 4-(4-{[2-(4-chlorophenyl)-4,4-dimethylcyclohex-1-en-1-yl]methyl}piperazin-1-yl)-N-({4-[(2-cyanoethyl)amino]-3-nitrophenyl}sulfonyl)-2-(1H-pyrrolo[2,3-b]pyridin-5-yloxy)benzamide], less than 0.01 nM. In the case of `CC1(C)CCC(CN2CCN(c3ccc(C(=O)NS(=O)(=O)c4ccc(NC[C@@H]5CCN(C6CCOCC6)C5)c([N+](=O)[O-])c4)c(Oc4cnc5[nH]ccc5c4)c3)CC2)=C(c2ccc(Cl)cc2)C1` [Compound 145, 4-(4-{[2-(4-chlorophenyl)-4,4-dimethylcyclohex-1-en-1-yl]methyl}piperazin-1-yl)-N-{[3-nitro-4-({[(3S)-1-tetrahydro-2H-pyran-4-ylpyrrolidin-3-yl]methyl}amino)phenyl]sulfonyl}-2-(1H-pyrrolo[2,3-b]pyridin-5-yloxy)benzamide] it was less than 0.01 nM; in that of `CN1CCN(Nc2ccc(S(=O)(=O)NC(=O)c3ccc(N4CCN(CC5=C(c6ccc(Cl)cc6)CC(C)(C)OC5)CC4)cc3Oc3cnc4[nH]ccc4c3)cc2[N+](=O)[O-])CC1` [Compound 67, 4-(4-{[4-(4-chlorophenyl)-6,6-dimethyl-5,6-dihydro-2H-pyran-3-yl]methyl}piperazin-1-yl)-N-({4-[(4-methylpiperazin-1-yl)amino]-3-nitrophenyl}sulfonyl)-2-(1H-pyrrolo[2,3-b]pyridin-5-yloxy)benzamide], less than 0.01 nM. Turning to `CC1(C)CCC(CN2CCN(c3ccc(C(=O)NS(=O)(=O)c4ccc(NCC5CCC6(CC5)COC6)c([N+](=O)[O-])c4)c(Oc4cnc5[nH]ccc5c4)c3)CC2)=C(c2ccc(Cl)cc2)C1` [Compound 365, 4-(4-{[2-(4-chlorophenyl)-4,4-dimethylcyclohex-1-en-1-yl]methyl}piperazin-1-yl)-N-({3-nitro-4-[(2-oxaspiro[3.5]non-7-ylmethyl)amino]phenyl}sulfonyl)-2-(1H-pyrrolo[2,3-b]pyridin-5-yloxy)benzamide], the Ki is less than 0.01 nM. Then `CC1(C)CCC(CN2CCN(c3ccc(C(=O)NS(=O)(=O)c4ccc(NC[C@@H]5CC[C@@H](O)C5)c([N+](=O)[O-])c4)c(Oc4cnc5[nH]ccc5c4)c3)CC2)=C(c2ccc(Cl)cc2)C1` [Compound 156, 4-(4-{[2-(4-chlorophenyl)-4,4-dimethylcyclohex-1-en-1-yl]methyl}piperazin-1-yl)-N-{[4-({[(1R,3R)-3-hydroxycyclopentyl]methyl}amino)-3-nitrophenyl]sulfonyl}-2-(1H-pyrrolo[2,3-b]pyridin-5-yloxy)benzamide], with less than 0.01 nM; and `CC1(C)CCC(CN2CCN(c3ccc(C(=O)NS(=O)(=O)c4ccc(NCC5CN(C6COC6)CCO5)c([N+](=O)[O-])c4)c(Oc4cnc5[nH]ccc5c4)c3)CC2)=C(c2ccc(Cl)cc2)C1` (stereo not drawn) [Compound 217, 4-(4-{[2-(4-chlorophenyl)-4,4-dimethylcyclohex-1-en-1-yl]methyl}piperazin-1-yl)-N-{[3-nitro-4-({[4-(oxetan-3-yl)morpholin-2-yl]methyl}amino)phenyl]sulfonyl}-2-(1H-pyrrolo[2,3-b]pyridin-5-yloxy)benzamide], with less than 0.01 nM; and `CC1(C)CCC(CN2CCN(c3ccc(C(=O)NS(=O)(=O)c4ccc(NC5CCN(C6CCC6)CC5)c([N+](=O)[O-])c4)c(Oc4cnc5[nH]ccc5c4)c3)CC2)=C(c2ccc(Cl)cc2)C1` [Compound 140, 4-(4-{[2-(4-chlorophenyl)-4,4-dimethylcyclohex-1-en-1-yl]methyl}piperazin-1-yl)-N-({4-[(1-cyclobutylpiperidin-4-yl)amino]-3-nitrophenyl}sulfonyl)-2-(1H-pyrrolo[2,3-b]pyridin-5-yloxy)benzamide], with less than 0.01 nM. Turning to `CC1(C)CCC(CN2CCN(c3ccc(C(=O)NS(=O)(=O)c4ccc(NC5CN(C6CCOC6)C5)c([N+](=O)[O-])c4)c(Oc4cnc5[nH]ccc5c4)c3)CC2)=C(c2ccc(Cl)cc2)C1` (stereo not drawn) [Compound 117, 4-(4-{[2-(4-chlorophenyl)-4,4-dimethylcyclohex-1-en-1-yl]methyl}piperazin-1-yl)-N-({3-nitro-4-[(1-tetrahydrofuran-3-ylazetidin-3-yl)amino]phenyl}sulfonyl)-2-(1H-pyrrolo[2,3-b]pyridin-5-yloxy)benzamide], the Ki was less than 0.01 nM. Turning to `CC1(C)CCC(CN2CCN(c3ccc(C(=O)NS(=O)(=O)c4ccc(OCC5COCCN5)c([N+](=O)[O-])c4)c(Oc4cnc5[nH]ccc5c4)c3)CC2)=C(c2ccc(Cl)cc2)C1` (stereo not drawn) [Compound 78, 4-(4-{[2-(4-chlorophenyl)-4,4-dimethylcyclohex-1-en-1-yl]methyl}piperazin-1-yl)-N-{[4-(morpholin-3-ylmethoxy)-3-nitrophenyl]sulfonyl}-2-(1H-pyrrolo[2,3-b]pyridin-5-yloxy)benzamide], the Ki is less than 0.01 nM. In the case of `O=C(NS(=O)(=O)c1ccc(NCC2CCOCC2)c([N+](=O)[O-])c1)c1ccc(N2CCN(CC3=C(c4ccc(Cl)cc4)CCC(F)(F)C3)CC2)cc1Oc1cnc2[nH]ccc2c1` [Compound 321, 4-(4-{[2-(4-chlorophenyl)-5,5-difluorocyclohex-1-en-1-yl]methyl}piperazin-1-yl)-N-({3-nitro-4-[(tetrahydro-2H-pyran-4-ylmethyl)amino]phenyl}sulfonyl)-2-(1H-pyrrolo[2,3-b]pyridin-5-yloxy)benzamide] it was less than 0.01 nM; in that of `CC1(C)CCC(c2ccc(Cl)cc2)=C(CN2CCN(c3ccc(C(=O)NS(=O)(=O)c4ccc(OCC5(F)CCOCC5)c([N+](=O)[O-])c4)c(Oc4cnc5[nH]ccc5c4)c3)CC2)C1` [Compound 119, 4-(4-{[2-(4-chlorophenyl)-5,5-dimethylcyclohex-1-en-1-yl]methyl}piperazin-1-yl)-N-({4-[(4-fluorotetrahydro-2H-pyran-4-yl)methoxy]-3-nitrophenyl}sulfonyl)-2-(1H-pyrrolo[2,3-b]pyridin-5-yloxy)benzamide], less than 0.01 nM. For the compound `CC1(C)CCC(CN2CCN(c3ccc(C(=O)NS(=O)(=O)c4ccc(OCC5(F)CCNCC5)c([N+](=O)[O-])c4)c(Oc4cnc5[nH]ccc5c4)c3)CC2)=C(c2ccc(Cl)cc2)C1` [Compound 127, 4-(4-{[2-(4-chlorophenyl)-4,4-dimethylcyclohex-1-en-1-yl]methyl}piperazin-1-yl)-N-({4-[(4-fluoropiperidin-4-yl)methoxy]-3-nitrophenyl}sulfonyl)-2-(1H-pyrrolo[2,3-b]pyridin-5-yloxy)benzamide], the Ki was less than 0.01 nM. For the compound `CC1(C)CCC(CN2CCN(c3ccc(C(=O)NS(=O)(=O)c4ccc(OCC5(F)CCN(C6CCOC6)CC5)c([N+](=O)[O-])c4)c(Oc4cnc5[nH]ccc5c4)c3)CC2)=C(c2ccc(Cl)cc2)C1` (stereo not drawn) [Compound 193, 4-(4-{[2-(4-chlorophenyl)-4,4-dimethylcyclohex-1-en-1-yl]methyl}piperazin-1-yl)-N-({4-[(4-fluoro-1-tetrahydrofuran-3-ylpiperidin-4-yl)methoxy]-3-nitrophenyl}sulfonyl)-2-(1H-pyrrolo[2,3-b]pyridin-5-yloxy)benzamide], the Ki was less than 0.01 nM. Compound `CC1(C)CCC(CN2CCN(c3ccc(C(=O)NS(=O)(=O)c4ccc(NCC5CCCN(S(C)(=O)=O)C5)c([N+](=O)[O-])c4)c(Oc4cnc5[nH]ccc5c4)c3)CC2)=C(c2ccc(Cl)cc2)C1` (stereo not drawn) [Compound 147, 4-(4-{[2-(4-chlorophenyl)-4,4-dimethylcyclohex-1-en-1-yl]methyl}piperazin-1-yl)-N-{[4-({[1-(methylsulfonyl)piperidin-3-yl]methyl}amino)-3-nitrophenyl]sulfonyl}-2-(1H-pyrrolo[2,3-b]pyridin-5-yloxy)benzamide] registered an inhibition constant Ki of less than 0.01 nM.

For the origin of these results see patent publication US10213433B2 (AbbVie Inc., priority 2010, dated 2019).
